This note sets out measurements from US12263155B2, “Combinations of monoamine oxidase inhibitors and serotonin receptor agonists and their therapeutic use” (Remedi, Inc., priority 2022, dated 2025).

pKd: −log10 of the molar value.

In one data set the target is T1, Oxidase MAO-A Peripheral (Rattus norvegicus, UniProt P21396).
T1 construct: purchased NovaScreen
T1 sequence (P21396 1-526): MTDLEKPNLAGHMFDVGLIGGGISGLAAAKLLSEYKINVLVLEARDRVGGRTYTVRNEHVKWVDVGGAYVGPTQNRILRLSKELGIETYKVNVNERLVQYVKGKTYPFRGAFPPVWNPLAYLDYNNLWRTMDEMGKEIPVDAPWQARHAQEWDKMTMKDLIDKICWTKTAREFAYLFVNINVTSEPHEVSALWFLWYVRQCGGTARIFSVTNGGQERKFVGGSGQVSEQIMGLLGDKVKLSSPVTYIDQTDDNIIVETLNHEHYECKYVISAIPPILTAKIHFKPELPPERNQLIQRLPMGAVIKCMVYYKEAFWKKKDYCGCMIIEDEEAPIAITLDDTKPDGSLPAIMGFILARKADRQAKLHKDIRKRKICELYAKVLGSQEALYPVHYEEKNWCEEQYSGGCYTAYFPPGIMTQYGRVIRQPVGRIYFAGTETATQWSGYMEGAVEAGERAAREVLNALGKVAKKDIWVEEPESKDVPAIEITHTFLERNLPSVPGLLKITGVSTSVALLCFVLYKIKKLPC
The data set can be described thus: NovaScreen ligand-binding screen, MAO-A. As to the method: Methods: Investigational drug candidates CX157 were analyzed in NovaScreen's bank of ligand-binding reactions to test for specificity. CX157 was screened at concentrations of both 10.0 nM and 100 nM as potential competitors in binding reactions involving nine classes containing 69 binding sites. The following binding reactions are tested: Adenosine Non-selective, Adrenergic Alpha 1 Non-selective, Adrenergic Alpha 2 Non-selective, Adrenergic Beta Non-selective, Dopamine Transporter, Dopamine Non-selective, GABA A Agonist Site, GABA A BDZ alpha 1 site, GABA B, Glutamate AMPA Site (Ionotropic), Glutamate Kainate Site (Ionotropic), Glutamate NMDA Agonist Site (Ionotropic), Glutamate NMDA Glycine (Stry-insens Site) (Ionotrophic), Glycine Strychnine-sensitive, Histamine H1, Histamine H2, Histamine H3, Melatonin Non-selective, Muscarinic M1 (hr), Muscarinic M2 (hr), Muscarinic Non-selective Central, Muscarinic Non-selective Peripheral, Nicotinic (α-BnTx insensitive) Neuronal, Norepinephrine Transporter, Opioid Non-selective, Orphanin (hr), Serotonin Transporter, Serotonin Non-selective, Sigma Non-selective, Estrogen, Testosterone (cytosolic), Calcium Channel Type L (Dihydropyridine Site), Calcium Channel Type N, Potassium Channel ATP-Sensitive, Potassium Channel Ca2+ Act. VI, Potassium Channel I[Kr]

Data set [1] can be described thus: Fed versus fasted pharmacokinetics of modified release tablet. In kind it is in vivo. The conditions noted are these: human, plasma, oral, 175 mg; fed and fasted; read-out: half-life, mean, range over treatments. As to the method: Methods: A total of 18 subjects were to participate and receive a single dose of CX157 Modified Release Tablet, 175 mg in fed or fasted states according to a randomization schedule. There was a six to seven-day washout period between the two study drug administrations.
Each CX157 Modified Release Tablet, 175 mg is stored long-term at controlled room temperature conditions [25° C. (77° F.), excursions 15-30° C. (59-86° F.)]; the tablets are a modified caplet shape, pale pink in color, and plain on both sides.

Data set [2] can be described thus: Exemplary administration of CX157, DMT and combinations: subjective effects. The conditions noted are these: 175 mg CX157 alone. In kind it is in vivo. As to the method: Administration Example 1: Subjects are administered 175 mg CX157 alone.
Administration Example 2: Subjects are administered 25 mg, 37.5 mg, 50 mg, 75 mg, or 100 mg DMT freebase in a capsule.
Administration Example 3: Subjects are administered 175 mg CX157, and then from between 2-3 hours later, such as at 2 hours 40 minutes later, a dose of 0.03 mg/kg, 0.05 mg/kg, or 0.07 mg/kg DMT freebase in capsule. Alternatively, subjects are administered a capsule containing 2.5 mg, 3.75 mg, 5 mg, 7.5 mg, 10 mg, 12.5 mg, 15 mg, 17.5 mg, or 20 mg DMT freebase.
Administration Example 4: Subjects are administered 175 mg CX157, and then from between 2-3 hours later, such as at 2 hours 15 minutes later, a dose of 0.2 mg/kg, 0.4 mg/kg, or 0.6 mg/kg DMT freebase in capsule. Alternatively, subjects are administered a capsule containing 25 mg, 37.5 mg, 50 mg, 75 mg, 100 mg, 125 mg, 150 mg, 175 mg, or 200 mg DMT freebase. At lower doses of DMT, subjects report effects that are relaxing, comforting, and “warm,” and describe mildly mood-elevating and anxiolytic properties. […]

Another data set deals with T2, MAO-A (Homo sapiens, UniProt P21397).
T2 sequence (P21397 1-527): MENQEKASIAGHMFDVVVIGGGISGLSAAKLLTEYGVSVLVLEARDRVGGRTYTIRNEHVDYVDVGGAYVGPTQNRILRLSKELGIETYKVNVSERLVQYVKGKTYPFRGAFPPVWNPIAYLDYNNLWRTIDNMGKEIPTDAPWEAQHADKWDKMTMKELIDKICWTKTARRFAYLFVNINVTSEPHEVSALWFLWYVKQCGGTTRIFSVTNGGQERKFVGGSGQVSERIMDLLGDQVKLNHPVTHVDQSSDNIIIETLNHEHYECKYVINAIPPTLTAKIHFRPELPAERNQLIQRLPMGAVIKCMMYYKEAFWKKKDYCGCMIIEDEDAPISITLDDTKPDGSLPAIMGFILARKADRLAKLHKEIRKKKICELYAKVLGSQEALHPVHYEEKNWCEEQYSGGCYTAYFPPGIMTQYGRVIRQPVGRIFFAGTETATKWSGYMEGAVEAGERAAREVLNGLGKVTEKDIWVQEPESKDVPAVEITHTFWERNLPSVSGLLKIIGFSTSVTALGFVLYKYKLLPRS
Nature of the data set: Phase I 14-day twice-daily pharmacodynamics. The arrangement: administered for 14 days compared to placebo in healthy male and female volunteers; from tissue; host or cells: in vivo, healthy volunteers. The conditions noted are these: repeated administration 10, 20, 40 mg twice daily. It is filed as in vivo.

By pKd is commonly meant the negative decadic logarithm of the Kd, by convention in mol/L. For orientation: half-life means the time needed for the level to fall by half in the phase considered. In the case of `O=S1(=O)c2ccc(F)cc2Oc2cc(OCC(F)(F)F)ccc21` [CX157, 3-fluoro-7(2,2,2-trifluorethoxy)phenoxathiine-10,10-dioxide], the “reduction of [14C]-5-HT binding” value at Oxidase MAO-A Peripheral (10.0 nM CX157) is reported as 63.4%; on Oxidase MAO-A Peripheral (100 nM CX157), 100.6%. The negative-log Kd (pKd) on Oxidase MAO-A Peripheral (read-out: Kd, competition for [14C]-serotonin (5-HT) binding) is 8.06. Besides, the half-life in data set [1] fell in the range of 20.6 to 23.5 h. In addition, in data set [2], the antidepressant activity entry is on record as “no significant antidepressant activity”. On MAO-A, the “pharmacodynamic activity: MAO-A activity” value is “inhibits MAO-A activity”.
